The results in this text go back to PMC11705451 (FEBS Open Bio, 2024).

Where two headings read alike, the source gives them in different places.

The target of experiment [1] is T1, hS1P5 (Homo sapiens, UniProt Q9H228).
T1 construct: gene S1PR5; receptor stably expressed in CHO-K1 cells
The experiment can be described thus: […]GTPgammaS binding, CHO-K1 membranes. The experiment is classed as biochemical. A general note: GTPγS resists hydrolysis and so accumulates on activated G proteins.

In experiment [2] the target is T2, hS1P3 (Homo sapiens, UniProt Q99500).
T2 construct: gene S1PR3; receptor stably expressed in CHO-K1 cells
T2 sequence (Q99500 whole entry): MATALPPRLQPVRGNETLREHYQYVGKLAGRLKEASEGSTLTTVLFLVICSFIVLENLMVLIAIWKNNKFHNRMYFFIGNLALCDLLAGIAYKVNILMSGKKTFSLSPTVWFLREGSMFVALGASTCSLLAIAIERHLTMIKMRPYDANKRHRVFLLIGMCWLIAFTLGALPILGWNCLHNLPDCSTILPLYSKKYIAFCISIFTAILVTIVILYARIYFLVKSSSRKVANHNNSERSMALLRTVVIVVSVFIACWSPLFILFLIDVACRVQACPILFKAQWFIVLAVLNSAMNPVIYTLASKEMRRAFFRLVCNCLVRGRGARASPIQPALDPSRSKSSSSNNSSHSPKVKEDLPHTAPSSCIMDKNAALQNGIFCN
Description: […]GTPgammaS binding, CHO-K1 membranes. The class given is biochemical.

Experiment [3] has as its target T3, hS1P2 (ProLink-tagged, PathHunter) (Homo sapiens, UniProt O95136).
T3 construct: gene S1PR2; PathHunter HEK293 cells, ProLink-tagged; N-terminal HA tag in the internalization assay
Description: PathHunter beta-arrestin recruitment. The experiment is classed as cell-based. (In general: Arrestin recruitment assays detect the binding of arrestin to an activated receptor.)

Experiment [4] has as its target T4, hS1P2 (Homo sapiens, UniProt O95136).
T4 construct: gene S1PR2; receptor stably expressed in CHO-K1 cells
The experiment can be described thus: […]GTPgammaS binding, CHO-K1 membranes. The class given is biochemical.

Experiment [5] addresses T5, hS1P5 (ProLink-tagged, PathHunter) (Homo sapiens, UniProt Q9H228).
T5 construct: gene S1PR5; ProLink-tagged receptor, PathHunter HEK293 cells
Description: cell-based. More on the design: species or system PathHunter HEK293; PathHunter beta-arrestin recruitment, agonist concentration-response. Particulars: HEK293, read-out: S1P5 β-Arrestin Emax, % of S1P. The text has this: (§1) We extended our pharmacological analysis of etrasimod and the other test compounds on S1P2–5. […] All tested compounds were agonists of S1P5, inducing both G protein signaling and β‐arrestin recruitment (Table S2).

Experiment [6] concerns the target T6, hS1P4 (ProLink-tagged, PathHunter) (Homo sapiens, UniProt O95977).
T6 construct: gene S1PR4; ProLink-tagged receptor, PathHunter HEK293 cells
T6 sequence (O95977 1-384): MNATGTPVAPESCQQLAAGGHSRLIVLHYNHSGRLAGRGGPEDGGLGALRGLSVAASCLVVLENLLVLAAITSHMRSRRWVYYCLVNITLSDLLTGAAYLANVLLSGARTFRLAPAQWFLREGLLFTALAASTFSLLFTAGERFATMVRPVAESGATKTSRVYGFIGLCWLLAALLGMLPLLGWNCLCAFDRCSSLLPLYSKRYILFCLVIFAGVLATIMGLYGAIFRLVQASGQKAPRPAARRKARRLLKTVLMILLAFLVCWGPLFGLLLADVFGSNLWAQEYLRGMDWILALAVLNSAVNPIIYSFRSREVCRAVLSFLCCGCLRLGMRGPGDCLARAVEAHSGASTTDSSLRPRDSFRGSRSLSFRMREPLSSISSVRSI
The experiment can be described thus: cell-based. The arrangement: species or system PathHunter HEK293; PathHunter beta-arrestin recruitment, agonist concentration-response. To be noted: HEK293, read-out: S1P4 β-Arrestin Emax, % of S1P.
Text: as §1

Experiment [7] has as its target T2, hS1P3. The experiment can be described thus: biochemical. The class given is CHO-K1 membranes. More on the design: [35S]GTPgammaS binding to membranes, agonist concentration-response. To be noted: read-out: S1P3 GTPγS Emax, % of S1P. An excerpt:
(§2) All tested compounds were agonists of S1P5, inducing both G protein signaling and β‐arrestin recruitment (Table S2).

Experiment [8] concerns the target T1, hS1P5. The experiment can be described thus: biochemical. The experiment is classed as CHO-K1 membranes. More on the design: [35S]GTPgammaS binding to membranes, agonist concentration-response. Particulars: read-out: S1P5 GTPγS Emax, % of S1P.
Text: as §2

Experiment [9] addresses T6, hS1P4 (ProLink-tagged, PathHunter). The experiment can be described thus: PathHunter beta-arrestin recruitment. The class given is cell-based.
The target of experiment [10] is T5, hS1P5 (ProLink-tagged, PathHunter). Description: PathHunter beta-arrestin recruitment. The experiment is classed as cell-based.
For experiment [11], the target named is T7, hS1P4 (Homo sapiens, UniProt O95977).
T7 construct: gene S1PR4; receptor stably expressed in CHO-K1 cells
T7 sequence (O95977 1-384): T6 sequence (O95977 1-384)
Description: […]GTPgammaS binding, CHO-K1 membranes. The class given is biochemical.

The target of experiment [12] is T7, hS1P4. The experiment can be described thus: biochemical. The experiment is classed as CHO-K1 membranes. The arrangement: [35S]GTPgammaS binding to membranes, agonist concentration-response. To be noted: read-out: S1P4 GTPγS Emax, % of S1P.
Text: as §2

In experiment [13] the target is T8, hS1P3 (ProLink-tagged, PathHunter) (Homo sapiens, UniProt Q99500).
T8 construct: gene S1PR3; ProLink-tagged receptor, PathHunter HEK293 cells
T8 sequence (Q99500 whole entry): as the sequence (Q99500 whole entry) above
The experiment can be described thus: cell-based. The arrangement: species or system PathHunter HEK293; PathHunter beta-arrestin recruitment, agonist concentration-response. To be noted: HEK293, read-out: S1P3 β-Arrestin Emax, % of S1P.
Text: as §1

In experiment [14] the target is T4, hS1P2. The experiment can be described thus: biochemical. The arrangement: [35S]GTPgammaS binding to membranes, agonist concentration-response. The class given is CHO-K1 membranes. Particulars: read-out: S1P2 GTPγS Emax, % of S1P.
Text: as §2

Experiment [15] concerns the target T3, hS1P2 (ProLink-tagged, PathHunter). The experiment can be described thus: receptor internalization, fluorescence microscopy. To be noted: N-terminal HA tag, 37 °C. The experiment is classed as cell-based.

T1 sequence (Q9H228 whole entry): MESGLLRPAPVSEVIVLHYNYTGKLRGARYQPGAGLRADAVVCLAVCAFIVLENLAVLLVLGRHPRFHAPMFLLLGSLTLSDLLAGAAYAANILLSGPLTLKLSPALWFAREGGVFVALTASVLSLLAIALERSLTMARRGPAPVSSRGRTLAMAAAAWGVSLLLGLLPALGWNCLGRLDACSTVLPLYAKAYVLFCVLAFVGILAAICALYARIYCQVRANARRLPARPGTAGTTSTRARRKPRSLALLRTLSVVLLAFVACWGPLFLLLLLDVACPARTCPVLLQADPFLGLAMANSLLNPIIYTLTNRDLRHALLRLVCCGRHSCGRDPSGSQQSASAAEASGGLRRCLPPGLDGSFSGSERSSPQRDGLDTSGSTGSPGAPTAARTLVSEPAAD
T5 sequence (Q9H228 whole entry): as above
T3 sequence (O95136 whole entry): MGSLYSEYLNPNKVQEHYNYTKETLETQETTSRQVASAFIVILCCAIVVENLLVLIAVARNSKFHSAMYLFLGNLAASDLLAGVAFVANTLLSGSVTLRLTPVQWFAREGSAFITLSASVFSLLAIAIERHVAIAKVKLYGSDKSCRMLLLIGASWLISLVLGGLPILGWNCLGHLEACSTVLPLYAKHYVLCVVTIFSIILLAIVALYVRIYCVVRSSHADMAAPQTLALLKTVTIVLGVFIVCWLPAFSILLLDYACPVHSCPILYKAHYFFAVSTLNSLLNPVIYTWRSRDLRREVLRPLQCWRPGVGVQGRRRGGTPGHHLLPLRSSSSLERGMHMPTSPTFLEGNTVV
T4 sequence (O95136 whole entry): as above

Broadly, the EC50 is the concentration needed to bring the measured effect to its halfway point. Broadly, the Emax is the greatest response seen or fitted, relative to the assay's reference. For the molecule `O=C(O)C[C@H]1CCc2c1[nH]c1ccc(OCc3ccc(C4CCCC4)c(C(F)(F)F)c3)cc21` [Etrasimod], the EC50 was 63.4 nM in experiment [1]; 6050 nM in experiment [2]; above 10000 nM in experiment [3] (read-out: EC50); above 10000 nM in experiment [4] (read-out: EC50); 141 nM in experiment [9]; 63.5 nM in experiment [10]. In [11], this molecule had an EC50 above 10000 nM. Also, the Emax was determined as 85.7% in experiment [5], 53.9% in experiment [6], 41.5% in [7] and 72% in [8].

Turning to `CCc1cc(/C(C)=N/OCc2ccc(C3CCCCC3)c(C(F)(F)F)c2)ccc1CN1CC(C(=O)O)C1` [Siponimod], the figures for the EC50 in experiment [2], in [9] and in experiment [11] were above 10000 nM, above 500 nM and 510 nM, respectively. The Emax in experiment [5] amounted to 107%; in [6], 92.6%; in experiment [12], 134%; in [8], 118%.

Take `CC(C)Oc1ccc(-c2nc(-c3cccc4c3CCC4=O)no2)cc1C#N` [Ozanimod(K)]: the EC50 in experiment [1] is 58.5 nM; in [2] it was above 10000 nM; in experiment [9] it was above 500 nM; in experiment [10], 95.8 nM; in [11], above 10000 nM. Further, the results for the Emax in [5], in experiment [6] and in [8] were 115%, 89.1% and 105%, respectively.

On to `CCCCCCCCc1ccc(CCC(N)(CO)COP(=O)(O)O)cc1` (stereo not shown) [Fingolimod(P)], for which the EC50 result in experiment [3] (agonist, 0.1% fatty acid-free BSA, room temperature, 2 h) is “fingolimod(P) was a weak agonist, in terms of both potency and efficacy”; in [4] (agonist, 0.1% fatty acid-free BSA, room temperature, 10 mM MgCl2) it was “fingolimod(P) was a weak agonist, in terms of both potency and efficacy”; in experiment [9] it was 6.9 nM; in [11], 6.1 nM. Besides, the Emax turned out to be 9.1% in [13]; 48.4% in experiment [5]; 77.6% in experiment [6]; 121% in experiment [12]; 39.1% in [7]; 69.5% in experiment [8]. Moreover, in [14], the Emax amounted to 35.2%.

Consider `CC(C)Oc1ccc(-c2nc(-c3cccc4c3CC[C@@H]4NCCO)no2)cc1C#N` [Ozanimod], for which the EC50 was 28.8 nM in [1]; above 6000 nM in experiment [2]; above 500 nM in experiment [9]; 12.3 nM in experiment [10]; above 10000 nM in [11]. For the same molecule, the “receptor internalization, fluorescence microscopy” value in experiment [15] is “Fingolimod(P) and ozanimod induced robust S1P2 internalization in a dose‐dependent and saturable fashion”.
